Consider 103 compounds from ChEMBL document CHEMBL3507680, “University of Dundee, Gates Library screen for HepG2 cell viability”.

Structures are written as SMILES.

The series can be described thus: Human HepG2 cell viability assay in 384 well format. Format: toxicity, cell-based. Set-up: dose 125 nL, time 70.5 hour; cytotoxicity at 70.5 h: concentration not given beside the values. The note with it: HepG2 cells, read-out: Inhibition.

`CN(Cc1ccco1)C(=O)CN1C(=O)c2ccccc2C1=O`: the cytotoxicity at 70.5 h was -2.38%.
For `O=C1NCCCCC1Sc1ccc(F)c(F)c1` (stereo not drawn), the cytotoxicity at 70.5 h is -13.1%.
The result for `Cn1nc2c(c1NC(=O)c1cccs1)CCC2` reads -12.2%; that for `CN(Cc1cccs1)C(=O)CN1C(=O)c2cc(Cl)c(Cl)cc2C1=O`, -13.1%.
For `Cc1nc(NC2CCN(C(=O)C3CC3)CC2)c2cnn(C)c2n1`, the cytotoxicity at 70.5 h is -11.5%.
As to `COCCNC(=O)c1ccc(NCc2c(C)noc2C)cc1Cl`, the cytotoxicity at 70.5 h is -6.64%.
The result for `NC(=O)CCN(CC(=O)NCc1cccs1)c1ccc(F)cc1` reads -6.81%; that for `CC(NC(=O)CN(C)C(C)C)c1ccc(Oc2cccnc2)c(F)c1` (stereo not drawn), -4.91%.
On to `CSCC(=O)N1CCOC(c2nc(C)n[nH]2)C1` (stereo not drawn), for which the cytotoxicity at 70.5 h was -12.3%.
The same measure for `CS(=O)(=O)CCCN1CCN(C(C#N)c2ccccc2)CC1` (stereo not drawn): 0.393%.
Take `CCS(=O)(=O)NCCN1CCN(C(C#N)c2ccccc2)CC1` (stereo not drawn): the cytotoxicity at 70.5 h is -9.85%.
The result for `CC(C)C1CN(C(=O)c2cc(F)cc3[nH]cnc23)CCS1` (stereo not drawn) reads -2.35%; that for `CC1(C)CCN1C(=O)c1cc(F)cc2[nH]cnc12`, -9.74%.
Consider `CNC(=O)c1ccc(CN2CCN(C3=NCC(C)(C)S3)CC2)cc1`, for which the cytotoxicity at 70.5 h worked out at 17.7%.
For the compound `COC(=O)c1ccc(NCc2csc(C)n2)cc1Cl`, the cytotoxicity at 70.5 h is -6.69%.
The result for `CN(Cc1ccsc1)C(=O)CNC(=O)N1CCc2ccccc2C1` reads -7.67%; that for `CN(Cc1ccccn1)C(=O)CNC(=O)N1CCc2ccccc2C1`, -10.7%; that for `COc1ccc(F)cc1CN(CC(N)=O)C(C)C`, -3.68%.
With `CC(C(N)=O)N1CCN(c2ncc(Br)cn2)CC1` (stereo not drawn), the cytotoxicity at 70.5 h was 0.267%.
The result for `Cc1noc(C(C)C)c1C(=O)N1CCC(n2cccn2)CC1` reads 13.2%; that for `COc1ccc(Cl)cc1CN(CC(N)=O)C(C)C`, -4.98%; that for `Cc1ccc(C)c(CN(CC(N)=O)C(C)C)c1`, -1.28%.
The result for `Cc1noc(C)c1S(=O)(=O)N1CCC(n2cccn2)CC1` reads -5.3%; that for `CCN(Cc1cccnc1)C1CCN(c2ccccc2)C1=O` (stereo not drawn), -3.8%; that for `Cc1c(NC(=O)N(C)CCO)cccc1OC1CCCC1`, -7.3%.
The result for `Cc1nn(C)c(C)c1C1CCCN1C(=O)c1cc(C(N)=O)cs1` (stereo not drawn) reads -6.04%.
For `CC(C)c1ccccc1OCCNC(=O)N1CCC(CC(N)=O)CC1`, the cytotoxicity at 70.5 h was -4.04%.
The result for `COCCC(=O)N(CCC#N)c1ccc(C)c(C)c1` reads -3.89%; that for `N#CCCN(C(=O)CCc1cscn1)c1ccc2c(c1)OCCO2`, 16.5%; that for `CCOc1cc(F)ccc1NC1CCN(CC(F)(F)F)C1=O` (stereo not drawn), -0.756%.
As to `Cc1cc(C)c(C(=O)N(C)CCN(C)C(=O)c2[nH]c(C)cc2C)[nH]1`, the cytotoxicity at 70.5 h is -6.06%.
The same measure for `CN1CCC(Nc2cc(Cl)ccc2OCC(F)(F)F)C1=O` (stereo not drawn): -1.29%.
The result for `Cc1sc(C(=O)N(C)S(C)(=O)=O)cc1-c1ccc(F)cc1` reads -2.76%; that for `Cc1sc(C(=O)NS(C)(=O)=O)cc1-c1ccc(F)cc1`, -4.18%.
The same measure for `NC(=O)c1ccc(NC2CCOC3(CCCC3)C2)nn1` (stereo not drawn): 17.2%; for `Cc1c(NC(=O)N(C)CCn2cnnc2)cccc1OC1CCCC1`: -4.56%.
On to `Cc1cnc(N2CCN(C(C)C(N)=O)CC2)nc1` (stereo not drawn), for which the cytotoxicity at 70.5 h is -1.41%.
The same measure for `CCCOc1cc(CNC(=O)Nc2ccccn2)ccn1`: 45.7%.
In the case of `CCNC(=O)CN1CCc2c(Br)ccc(F)c2C1`, the cytotoxicity at 70.5 h turned out to be 5.62%.
Take `O=C(NCCN1CCOCC1)NCc1cccnc1-n1cccn1`: the cytotoxicity at 70.5 h is -2.89%.
The same measure for `O=C(CCC(=O)N1CCOCC1)NCc1cccnc1-n1cccn1`: 1.46%; for `Cc1nnc(NCC(c2cccs2)N2CCCC2)c(C#N)c1C` (stereo not drawn): -2.36%.
The result for `CC(C)N(CC(N)=O)CC(=O)NCCc1c(F)cccc1F` reads -1.87%.
The result for `Cc1ccccc1C1CCN(C(=O)CCNC(=O)C(C)(C)C)C1` (stereo not drawn) reads -1.33%; that for `CC(Cc1c(F)cccc1F)NC(=O)CSCC(N)=O` (stereo not drawn), 12.1%.
Take `Cc1ccc(NS(=O)(=O)c2cccc(C#N)c2)c(CN(C)C)c1`: the cytotoxicity at 70.5 h was found to be 0.936%.
The same measure for `Cc1ccccc1CNC(Cn1cncn1)c1ccccc1` (stereo not drawn): 1.75%; for `CCSCCC(C)N(C)C(=O)c1cc(C)on1` (stereo not drawn): -3.26%.
The same measure for `Cc1cc(C(=O)NC(CC(C)C)C(=O)Nc2cc[nH]n2)c(C)o1` (stereo not drawn): 0.859%; for `CC(C)CC(NC(=O)c1cnn(C)c1)C(=O)Nc1cc[nH]n1` (stereo not drawn): 0.0249%.
As for `N#Cc1c(Cl)nsc1NCc1ccc(N2CCC(CO)CC2)cc1`, the cytotoxicity at 70.5 h is -0.689%.
The same measure for `CC(C)(C)n1ncc2c(=O)[nH]c(N3CCC4(CCCCC4)C3)nc21`: -2.75%; for `Cc1nn(C)cc1C(=O)NC(CC(C)C)C(=O)Nc1cc[nH]n1` (stereo not drawn): 12.6%.
The result for `COCCOCCC(=O)N1CCC(c2ccccc2C)C1` (stereo not drawn) reads -4.21%; that for `CCSCCC(C)N(C)C(=O)c1cc(C)no1` (stereo not drawn), -2.61%.
Take `Cc1ccc(NCc2ccc(C#N)cc2)c(CN(C)C)c1`: the cytotoxicity at 70.5 h worked out at 15.8%.
As to `Cc1ccc(S(=O)(=O)NCCNC(=O)c2cncnc2C)cc1`, the cytotoxicity at 70.5 h was -2.92%.
The same measure for `Fc1cc(CN2CCOC3(CCOCC3)C2)ccc1OC(F)F`: -3.49%; for `COc1cc(C(C)NCc2ncccc2C)ccc1SC(F)F` (stereo not drawn): 52.4%; for `CN(C)C1Cc2ccccc2N(S(=O)(=O)c2ccccc2C#N)C1` (stereo not drawn): 34.1%.
The result for `COc1cc(OC)cc(N2CCC(NCc3occc3C)C2=O)c1` (stereo not drawn) reads 31%.
The same measure for `COc1cc(OC)cc(N2CCC(NCc3ccsc3)C2=O)c1` (stereo not drawn): 33.1%; for `NC(=O)CCN(C(=O)CSc1ccc(F)cc1)c1ccc(F)cc1`: 30.2%; for `COc1ccc(N(CCC(N)=O)C(=O)CSc2ccc(Cl)cc2)cc1`: -0.942%.
With `O=C(Cn1ccc(=O)[nH]c1=O)Nc1ccccc1F`, the cytotoxicity at 70.5 h is -4.99%.
The same measure for `O=C1CN(C(=O)c2cc(Cl)ccc2F)c2ccccc2N1`: 37.1%; for `CC(C)Oc1ccc(CNC(=O)C2CCS(=O)(=O)C2)cn1` (stereo not drawn): 26.3%.
The result for `COc1ccc(N(CCC(N)=O)C(=O)CSc2ccc(F)c(F)c2)cc1` reads -12.7%; that for `COc1ccc(C(=O)NCC(=O)N(Cc2ccsc2)C2CC2)cc1OC`, 30.2%; that for `COc1ccc(CC(=O)N2CCC(c3nnc4n3CCC4)CC2)cc1F`, -5.72%.
For `Cc1cc(C)c(CNC(=O)N2CCC(N3CCCC3)CC2)c(=O)[nH]1`, the cytotoxicity at 70.5 h was -7.61%.
`Cc1ccc(CC(=O)N2CCC(c3nnc4n3CCC4)CC2)cc1`: the cytotoxicity at 70.5 h is -8.21%.
As to `Cc1cc(C)c(CNC(=O)N2CCC(N3CCNC3=O)CC2)c(=O)[nH]1`, the cytotoxicity at 70.5 h was -10.5%.
Turning to `CC(=O)N1CCN(C(=O)NCc2ccccc2Cn2ccnc2)CC1`, the cytotoxicity at 70.5 h is -14.1%.
The result for `O=C(c1cnc(NCCC2CCCO2)c(Cl)c1)N1CCCCC1` (stereo not drawn) reads -10%; that for `CCn1cnnc1C1CCN(C(=O)Cc2ccc(OC)c(F)c2)CC1`, -7.22%.
Take `O=C(NCc1ccccc1Cn1ccnc1)N1CCOCC1`: the cytotoxicity at 70.5 h is -9.82%.
Consider `COc1ccccc1S(=O)(=O)N1CC(N(C)C)Cc2ccccc21` (stereo not drawn), for which the cytotoxicity at 70.5 h stood at 30.7%.
For `COc1cc(CCNC(=O)NCCC2CCCO2)ccc1C` (stereo not drawn), the cytotoxicity at 70.5 h is -9.73%.
The result for `CC(Oc1ccc(OCc2ncc(C(C)C)o2)cc1)C(N)=O` (stereo not drawn) reads -8.33%.
On to `CCc1nsc(N2CCC3(CC2)OCCO3)n1`, for which the cytotoxicity at 70.5 h is -8.49%.
The result for `CC(N1CCN(C(=O)NCc2cccc(C#N)c2)CC1)C(F)(F)F` (stereo not drawn) reads -0.642%.
For the compound `COCc1nc(C)cc(Nc2ccc3c(c2)CC(=O)N3)n1`, the cytotoxicity at 70.5 h is -7.41%.
Regarding `CCc1cnc(CN2CCCC(c3cc(C)[nH]n3)C2)o1` (stereo not drawn), the cytotoxicity at 70.5 h is -8.59%.
The same measure for `O=C(NCCc1ccn(-c2ccc(F)cc2)n1)C1CCCO1` (stereo not drawn): -5.68%; for `CN1CC(C(=O)NCCc2ccn(-c3ccc(F)cc3)n2)CC1=O` (stereo not drawn): -9.34%; for `c1cc(CCN2CCCC2CN2CCCC2)ccn1` (stereo not drawn): 30%.
In the case of `CSCC1CCCN1CCc1ccncc1` (stereo not drawn), the cytotoxicity at 70.5 h was 27.5%.
For the compound `Cc1ncc2c(n1)CN(CC(=O)N1CCc3sccc3C1)CC2`, the cytotoxicity at 70.5 h is -1.15%.
The same measure for `CCc1ncc2c(n1)CN(CC(=O)N1CCc3sccc3C1)CC2`: -9%; for `COc1cc(C(C)NCc2scnc2C)ccc1SC(F)F` (stereo not drawn): -9.67%; for `O=C(CCN1CCc2cncnc2C1)N1CCc2sccc2C1`: -1.14%.
The same measure for `CC(C)CC(C)N(C)Cc1nnc(-c2ccco2)o1` (stereo not drawn): 31.7%.
The result for `COCc1ccc(C(=O)N2CCCN(C(=O)OCC(C)C)CC2)cc1` reads 19%; that for `Cc1cc(C2CCCN(C(=O)c3ccc(OCC4CC4)nc3)C2)n[nH]1` (stereo not drawn), -4.64%.
For `Cc1cc(Cl)ccc1NCC(=O)Nc1cc(C(C)(C)C)no1`, the cytotoxicity at 70.5 h was -6.23%.
The result for `CCCC(C)N(C)Cc1nnc(-c2ccco2)o1` (stereo not drawn) reads 1.45%; that for `CCOC(=O)NCCC(=O)NCc1ccc(Oc2ccc(F)cc2)nc1`, 1.62%; that for `CCc1noc(C)c1C(=O)NCc1ccccn1`, -0.245%.
In the case of `CCOC(=O)NCCC(=O)NCc1ccc(Oc2cccc(F)c2)nc1`, the cytotoxicity at 70.5 h was -3.11%.
As to `CC(NC(=O)CCc1nc(-c2nnc[nH]2)no1)c1ccc(F)cc1F` (stereo not drawn), the cytotoxicity at 70.5 h was determined as 4.47%.
The result for `c1cc(CNCc2ccc(Cn3cncn3)cc2)c2c(c1)OCCO2` reads -11.4%.
The result for `c1cc(CNCc2cccc3c2OCCCO3)cc(Cn2cncn2)c1` reads -8.37%.
